The test has as its system T. b. brucei. In words: In vitro antitrypanosomal activity against T. brucei (growth inhibition). Format: cell-based, Trypanosoma brucei. The procedure: Primary hits from the screen were further characterized using a dose-response assay format to determine the EC50. In parallel, the cytotoxicities of these compounds were determined against a proliferating human hepatoma cell line (Huh7). […] SI—CC50/EC50). The final set of confirmed T. brucei hits consisted of 1035 inhibitors. […] In vitro antitrypanosomal activities against T. b. rhodesiense (STIB9000) and cytotoxicities against L6 rat myoblast cells were measured following established protocols (Orhan et al., Mar. Drugs 8:47 (2010). […] All wells including negative controls contained a final of 0.4% DMSO. After incubation of the plates at 37° C. for 48 h, the parasite density was determined using the CellTiter-Glo reagent (Promega), a firefly luciferase assay system that measures the amount of cellular ATP present in plate wells.

Setting [1] is: Trypanosoma brucei, Table 9, read-out: T. brucei EC50.
The mark [2] stands for this setting: Trypanosoma brucei, Table 9, read-out: T. brucei EC90.
[3] abbreviates: Trypanosoma brucei, Table 17, read-out: T. b. brucei EC50.
[4] abbreviates: Trypanosoma brucei, Table 17, read-out: T. b. brucei EC90.

Counter-ions that a name gives are not always drawn. Like-named read-outs stand apart in the source and are kept apart here.

`O=C(Nc1ccc2[nH]c(-c3ccccc3)nc2c1)c1ccccc1` [Compound 14, 5-Benzamido-2-phenylbenzimidazole hydrochloride]: the EC50 (Trypanosoma brucei, read-out: T. brucei EC50) was more than 10 µM. In addition, where the note is “Trypanosoma brucei, read-out: T. brucei EC90”, the EC90 is more than 10 µM.

As to `O=C(Nc1ccc2sc(-c3ccccc3)nc2c1)c1ccsc1` [Compound 19, 2-Phenyl-5-(3-thienylamido)benzothiazole], the EC50 under setting [1] is 1.57 µM. Besides, the EC90 under setting [2] turned out to be 2.49 µM.

As to `O=C(Nc1ccc2sc(-c3ccccc3)nc2c1)c1nccs1` [Compound 20, N-(2-Phenylbenzo[d]thiazol-5-yl)thiazole-2-carboxamide], the EC50 under setting [1] was 5.86 µM. Under setting [2], the EC90 was more than 10 µM.

On to `O=C(Nc1ccc2sc(-c3ccccc3)nc2c1)c1cscn1` [Compound 21, N-(2-Phenylbenzo[d]thiazol-5-yl)thiazole-4-carboxamide], for which the EC50 under setting [1] is more than 10 µM. Besides, the EC90 under setting [2] was more than 10 µM.

In the case of `O=C(Nc1ccc2sc(-c3cccc(F)c3)nc2c1)N1CCN(C(=O)Nc2ccc3sc(-c4cccc(F)c4)nc3c2)CC1` [Compound 31, N^1,N^4-Bis(2-(3-fluorophenyl)benzothiazol-5-yl)piperazine-1,4-dicarboxamide], the EC50 under setting [1] is more than 20 µM. Moreover, the EC90 under setting [2] is more than 20 µM.

For the compound `NC1CCN(C(=O)Nc2ccc3sc(-c4ccc(F)c(F)c4)nc3c2)C1` (centres unmarked) [Compound 37, 2-(3,4-Difluorophenyl)-5-(3-amino-N-pyrrolidylamido)benzothiazole], under setting [1], the EC50 was 2.32 µM. In addition, the EC90 under setting [2] is 2.72 µM.

On to `O=C(Nc1ccc2sc(-c3ccc(F)c(F)c3)nc2c1Br)N1CC[C@H](F)C1` [Compound 55], for which, under setting [3], the EC50 is more than 20 µM. The EC90 under setting [4] is more than 20 µM.

In the case of `O=C(Nc1cnc2sc(-c3ccc(F)c(F)c3)nc2c1)N1CC[C@H](F)C1` [Compound 56, (S)-2-(3,4-Difluorophenyl)-5-(3-fluoro-N-pyrrolidylamido)-7-azabenzothiazole], the EC50 under setting [3] was 0.181 µM. For the same compound, the EC90 under setting [4] was determined as 0.364 µM.

On to `O=C(Nc1ccc2sc(-c3ccc(F)c(F)c3)nc2c1)c1cnco1` [Compound 58, N-(2-(3,4-Difluorophenyl)benzo[d]thiazol-5-yl)oxazole-5-carboxamide], for which, under setting [3], the EC50 was more than 20 µM. Under setting [4], the EC90 was more than 20 µM.

As for `Cc1nc(C(=O)Nc2ccc3sc(-c4ccc(F)c(F)c4)nc3c2)c(C)o1` [Compound 60], the EC50 under setting [3] was more than 20 µM. Further, the EC90 under setting [4] is more than 20 µM.

Regarding `O=C(Nc1ccc2sc(-c3ccc(F)c(F)c3)nc2c1)c1cncs1` [Compound 61], the EC50 under setting [3] was determined as 3.83 µM. Moreover, under setting [4], the EC90 amounted to 7.37 µM.

In the case of `Cc1nc(C)c(C(=O)Nc2ccc3sc(-c4ccc(F)c(F)c4)nc3c2)s1` [Compound 62], the EC50 under setting [3] is more than 20 µM. Besides, the 90% effect concentration (EC90) under setting [4] was more than 20 µM.

In the case of “N-(2-(3,4-Difluorophenyl)benzo[d]thiazol-5-yl)oxazole-4-carboxamide [Compound 57]”, the EC50 (Table 17, read-out: T. b. brucei EC50) was more than 20 µM. The EC90 (Table 17, read-out: T. b. brucei EC90) is more than 20 µM.
